Data as given in patent publication US5187082A, “Process for producing A83850 antibiotics” (Eli Lilly and Company, priority 1990, dated 1993).
In brackets after ≈: the same amount, converted by molar mass.

How the values were obtained:
[1] = system: Peptostreptococcus anaerobius; assay: Activity against anaerobic bacteria, agar-dilution MIC; assay type: cell-based; details: 24 h
Fusobacterium symbiosum = assay: microbe, parasite or virus in culture; details: 24 h
[2] = system: Bacteriodes melaninogenicus; assay: Activity against anaerobic bacteria, agar-dilution MIC; assay type: cell-based; details: 24 h
Clostridium septicum = assay: microbe, parasite or virus in culture; details: 24 h
Propionibacterium acnes = assay: Activity against anaerobic bacteria, agar-dilution MIC; assay type: cell-based; details: Cutibacterium acnes, 24 h
[3] = system: Culture A83850 (Amycolatopsis albus NRRL 18532); assay: Resistance of culture A83850 to antibiotics, sensitivity discs on seeded ISP No. 2 agar plates; assay type: cell-based; details: disc content printed per antibiotic
Method: Resistance to antibiotics was measured by padding antibiotic sensitivity discs onto the surface of seeded ISP No. 2 agar plates.

Bacteroides corrodens = assay: Activity against anaerobic bacteria, agar-dilution MIC; assay type: cell-based; details: Eikenella corrodens, 24 h
[4] = system: Peptococcus asaccharolyticus; assay: as above; details: Peptoniphilus asaccharolyticus, 24 h
Bacteriodes fragilis = assay: as above; assay type: cell-based; details: 24 h
[5] = system: Fusobacterium necrophorum; assay: microbe, parasite or virus in culture; details: 24 h
Bacteriodes vulgatis = assay: Activity against anaerobic bacteria, agar-dilution MIC; details: 24 h
Peptococcus prevoti = assay: as above; details: 24 h
Clostridium perfringens = assay: microbe, parasite or virus in culture; details: 24 h
Streptococcus pneumoniae = assay: In vivo activity against experimentally-induced infection in mice; details: doses administered subcutaneously to mice 1 and 4 hours postinfection
Method: (§1) The A83850 antibiotics have also shown in vivo antimicrobial activity against experimentally-induced infections in laboratory animals. When two doses of test compound were administered to mice experimentally infected with the test organism, the activity observed was measured as an ED50 value [effective dose in mg/kg to protect 50% of the test animals: see Warren Wick, et al., J. Bacteriol. 81, 233-235 (1961)].
(§2) ^a mg/kg × 2; doses administered subcutaneously to mice 1 and 4

Staphylococcus aureus = assay: as above; details: doses administered subcutaneously to mice 1 and 4 hours postinfection
Method: as §1, §2

Streptococcus pyogenes = assay: as above; details: doses administered subcutaneously to mice 1 and 4 hours postinfection
Method: as §1, §2

Eubacterium aerofaciens = assay: microbe, parasite or virus in culture; details: Collinsella aerofaciens, 24 h
Clostridium difficile = assay: Activity against anaerobic bacteria, agar-dilution MIC; details: Clostridioides difficile, 24 h
[6] = system: Bacteriodes thetaiotaomicron; assay: as above; details: 24 h
[7] = system: Peptostreptococcus intermedius; assay: as above; assay type: cell-based; details: Peptostreptococcus, 24 h
[8] = system: Staphylococcus epidermidis 270; assay type: cell-based; details: Staphylococcus epidermidis, 270
Method: (§3) The MIC's in Table VII were determined by standard agar-dilution assays.

[9] = system: Staphylococcus aureus V41; assay type: cell-based; details: Staphylococcus aureus, V41
Method: as §3

[10] = system: Streptococcus pyogenes C203; assay type: cell-based; details: Streptococcus pyogenes, C203
Method: as §3

Enterococcus faecium X66 = assay type: cell-based; details: Enterococcus faecium, X66
Method: as §3

[11] = system: Enterococcus faecalis 2041; assay type: cell-based; details: Enterococcus faecalis, 2041
Method: as §3

[12] = system: Staphylococcus aureus X400; assay type: cell-based; details: Staphylococcus aureus, X400
Method: as §3

[13] = system: Staphylococcus epidermidis 222; assay type: cell-based; details: Staphylococcus epidermidis, 222
Method: as §3

[14] = system: Staphylococcus aureus X1.1; assay type: cell-based; details: Staphylococcus aureus, X1.1
Method: as §3

[15] = system: Streptococcus pneumoniae Park 1; assay: microbe, parasite or virus in culture; assay type: cell-based; details: Streptococcus pneumoniae, PARK1
Method: as §3

## CN[C@H](CC(C)C)C(=O)N[C@H]1C(=O)N[C@@H](CC(N)=O)C(=O)N[C@H]2C(=O)N[C@H]3C(=O)N[C@H](C(=O)N[C@H](C(=O)O)c4cc(O)cc(O)c4-c4cc3ccc4O)[C@H](O)c3ccc(c(Cl)c3)Oc3cc2cc(c3O[C@@H]2O[C@H](CO)[C@@H](O)[C@H](O)[C@H]2O[C@H]2C[C@](C)(N)[C@H](O)[C@H](C)O2)Oc2ccc(cc2Cl)[C@H]1O [Vancomycin, vancomycin, reference compound]
[1]
  MIC: 1 µg/mL (≈ 0.69 µM)
Fusobacterium symbiosum
  MIC: 2 µg/mL (≈ 1.38 µM)
[2]
  MIC: 128 µg/mL (≈ 88.3 µM)
Clostridium septicum
  MIC: 2 µg/mL (≈ 1.38 µM)
Propionibacterium acnes
  MIC: 4 µg/mL (≈ 2.76 µM)
[3]
  Resistance or inhibition of culture A83850 by antibiotic disc: inhibited
Bacteroides corrodens
  MIC: 32 µg/mL (≈ 22.1 µM)
[4]
  MIC: 4 µg/mL (≈ 2.76 µM)
Bacteriodes fragilis
  MIC: 16 to 32 µg/mL (≈ 11 to 22.1 µM)
[5]
  MIC: 1 µg/mL (≈ 0.69 µM)
Bacteriodes vulgatis
  MIC: 16 µg/mL (≈ 11 µM)
Peptococcus prevoti
  MIC: 4 µg/mL (≈ 2.76 µM)
Clostridium perfringens
  MIC: 2 µg/mL (≈ 1.38 µM)
Streptococcus pneumoniae
  ED50 Value: 0.67 mg/kg × 2
Staphylococcus aureus
  ED50 Value: 1.43 mg/kg × 2
Streptococcus pyogenes
  ED50 Value: 0.98 mg/kg × 2
Eubacterium aerofaciens
  MIC: 8 µg/mL (≈ 5.52 µM)
Clostridium difficile
  MIC: 2 µg/mL (≈ 1.38 µM)
[6]
  MIC: 64 µg/mL (≈ 44.2 µM)
[7]
  MIC: 2 µg/mL (≈ 1.38 µM)
[8]
  MIC: 1 µg/mL (≈ 0.69 µM)
[9]
  MIC: 0.5 µg/mL (≈ 0.345 µM)
[10]
  MIC: 0.5 µg/mL (≈ 0.345 µM)
Enterococcus faecium X66
  MIC: 1 µg/mL (≈ 0.69 µM)
[11]
  MIC: 4 µg/mL (≈ 2.76 µM)
[12]
  MIC: 1 µg/mL (≈ 0.69 µM)
[13]
  MIC: 1 µg/mL (≈ 0.69 µM)
[14]
  MIC: 0.5 µg/mL (≈ 0.345 µM)
[15]
  MIC: 0.5 µg/mL (≈ 0.345 µM)
